# System: influenza virus (A/Aichi/2/68)
# Assay: Inhibition of Influenza Virus Adsorbtion to Erythrocytes (hemagglutination of resialylated human erythrocytes)
# Settings: relative to Me αDNeuAc = 1.0 (Table 8)
# Excerpt: The heptasaccharides can be evaluated as inhibitors of the influenza virus hemagglutination of the resialylated human erythrocytes.
# ^a Inhibition of influenza virus (A/Aichi/2/68) to resialylated
row,Structure (SMILES),Relative Potency
1,"COC(=O)CCCCCOC1OC(CO)C(O)C(OC2OC(CO)C(OC3OC(COC4(C(=O)O)CC(O)C(NC(C)=O)C(C(O)C(O)CO)O4)C(O)C(O)C3O)C(O)C2NC(C)=O)C1OC1OC(CO)C(OC2OC(COC3(C(=O)O)CC(O)C(NC(C)=O)C(C(O)C(O)CO)O3)C(O)C(O)C2O)C(O)C1NC(C)=O [Example 27, 5-(Methoxycarbonyl)pentyl 2,3-di-O-{5-acetamido-3,5-dideoxy-D-glycero-D-galacto-2-nanulopyranosylonic acid(2→6)-β-D-galactopyranosyl(1→4)-2-acetamido-2-deoxy-β-D-glucopyranosyl}-β-D-galactopyranoside]",7.2
2,"COC(=O)CCCCCOC1OC(CO)C(OC2OC(CO)C(OC3OC(COC4(C(=O)O)CC(O)C(NC(C)=O)C(C(O)C(O)CO)O4)C(O)C(O)C3O)C(O)C2NC(C)=O)C(O)C1OC1OC(CO)C(OC2OC(COC3(C(=O)O)CC(O)C(NC(C)=O)C(C(O)C(O)CO)O3)C(O)C(O)C2O)C(O)C1NC(C)=O [Example 28, 5-(Methoxycarbonyl)pentyl 2,4-di-O-{5-acetamido-3,5-dideoxy-D-glycero-D-galacto-2-nanulopyranosylonic acid(2→6)-β-D-galactopyranosyl(1→4)-2--acetamido-2-deoxy-β-D-glucopyranosyl}-β-D-galactopyranoside]",1.5
3,"COC(=O)CCCCCOC1OC(CO)C(OC2OC(CO)C(OC3OC(CO)C(O)C(O)C3O)C(O)C2NC(C)=O)C(O)C1OC1OC(CO)C(OC2OC(COC3(C(=O)O)CC(O)C(NC(C)=O)C(C(O)C(O)CO)O3)C(O)C(O)C2O)C(O)C1NC(C)=O [Example 28A, 5-(methoxycarbonyl)pentyl 2-O-[5-acetamido-3,5-dideoxy-D-glycero-D-galactononulopyranosylonic acid (2→6)-β-D-galactopyranosyl-(1→4)-2-acetamido-2-deoxy-D-glycopyranosyl]-4-O-[β-D-galactopyranosyl-(1→4)-2-acetamido-2-deoxy-D-glucopyranosyl]-β-D-galactopyranoside]",1.9
4,"COC(=O)CCCCCOC1OC(COC2OC(CO)C(OC3OC(COC4(C(=O)O)CC(O)C(NC(C)=O)C(C(O)C(O)CO)O4)C(O)C(O)C3O)C(O)C2NC(C)=O)C(O)C(OC2OC(CO)C(OC3OC(COC4(C(=O)O)CC(O)C(NC(C)=O)C(C(O)C(O)CO)O4)C(O)C(O)C3O)C(O)C2NC(C)=O)C1O [Example 30, 5-(Methoxycarbonyl)pentyl 3,6-di-O-{5-acetamido-3,5-dideoxy-D-glycero-D-galacto-2-nanulopyranosylonic acid(2→6)-β-galactopyranosyl(1→4)-2-acetamido-2-deoxy-β-D-glucopyranosyl}-β-D-galactopyranoside]",8.4

# — US5220008A, “Oligosaccharide inhibitors for influenza virus” (priority 1991, dated 1993)
